How the values were obtained:
[1] = system: ovarian cancer cell line JC; test: In vitro cytotoxic activity, Presto blue assay, ovarian cancer cell line JC; type: cell-based
Protocol: (§1) The cytotoxic activity of the compounds was tested using methods as described earlier (van Haaften et al. Journal of Experimental & Clinical Cancer Research (2015) 34:38). In short, 3×10^4 cells of the ovarian cancer cell line JC (Van Haaften-Day et al. Cancer Res. 1983) were seeded in 24-well plates (Costar, Denmark) in DMEM/F12 medium (Invitrogen) containing 10% of Fetal Calf Serum (FCS, Sigma), 50 U penicillin and 50 μg/mL streptomycin (Invitrogen). The cells were incubated at 37° C. in a 9% CO2 incubator with 95% humidity. After 24 hours, solutions 1-6 were added to the cell cultures.
(§2) Cytotoxic activity of each of the compounds was determined after 72 hours in a standard Presto blue assay (see Van Haaften et al. J Exp Clin Cancer Res. 2015 34(1): 38 for details on the method). Each compound's solution as described above was diluted 100, 200 and 400 times respectively.

[2] = system: cervical cancer cell line Siha; test: Effect of synthetic EPD on growth of cervical cancer cell line Siha; type: cell-based; conditions: for cancer cell growth reduced by: Siha, FIG. 1B
Protocol: (§3) Further, the effect of synthetic EPD (1-3 μg/mL) was studied on normal fibroblasts and compared with the effect on a cervical cancer cell line Siha (FIG. 1B). […] At a concentration of 1 μg/mL, fibroblast growth was unaffected, whereas cancer cell growth was reduced by almost 20%. At a concentration of […], fibroblast growth was reduced by almost 20%, whereas cancer cell growth was reduced by more than 80%, and at a concentration of 3 μg/mL, fibroblast growth was reduced by 35%, whereas cancer cell growth was reduced by almost 97%.

normal fibroblasts = test: Effect of synthetic EPD on growth of normal fibroblasts; type: cell-based; conditions: FIG. 1B
Protocol: as §3

[3] = system: ovarian cancer cell line A2780AD; test: Growth of multi-drug resistant ovarian cancer cell line A2780AD after 72 hrs; type: cell-based, human; conditions: for growth of the cell line, % of the control value: 72 hrs, control (medium) = 100%
Protocol: as §1, §2
Also the effect of synthetic EPD was tested on an ovarian cancer cell line A2780AD, ATCC using methods as described above, whereby the experiment was ended after 72 hrs. Cell line A2780AD, a multi-drug resistant human ovarian cancer cell line, is resistant to paclitaxel. It was shown that at 1, 1.5 and 2 μg/mL of synthetic EPD, the growth of the cell line after 72 hrs was reduced to 40%, 13% and 8% of the control value (100%, medium), respectively.

ovarian cancer = conditions: cited from earlier work
normal cells = conditions: cited from earlier work

For `C=C1C(=O)O[C@H]2CC3=CCCC[C@]3(C)C[C@@H]12` (relative stereo) [racemic mixture of the (mono) methyl analogue, (rel3aS,4aR,9aS)-4α-methyl-3-methylene-3a,4,4a,5,6,7,9,9a-octahydronaphtho[2,3-b]furan-2(3H)-one], the cytotoxic activity ([1]; JC cells, 72 hours, solutions diluted 100, 200 and 400 times, FIG. 1A, compared with natural EPD) was “demonstrates cytotoxic activity”.

In the case of `C=C1C(=O)O[C@@H]2CC3=CCC[C@H](C)[C@@]3(C)C[C@H]12` (single isomer, unassigned) [synthetic EPD, eremophila-1(10)-11(13)-dien-12,8β-olide], the “dose-dependent effect on cancer cells compared with fibroblasts” value ([2]; Siha vs normal fibroblasts, 1-3 μg/mL) was “much higher on cancer cells than on fibroblasts”, the “cancer cell growth reduced by” value ([2]; synthetic EPD 1 μg/mL) was ~20% and the “cancer cell growth reduced by” value ([2]; synthetic EPD 3 μg/mL) was ~97%. The “cancer cell growth reduced by” value ([2]; synthetic EPD 2 g/mL) was “more than 80%”, the fibroblast growth (normal fibroblasts; synthetic EPD 1 μg/mL) was “unaffected” and the “fibroblast growth reduced by” value (normal fibroblasts; synthetic EPD 2 μg/mL) was ~20%. For the same compound, the “fibroblast growth reduced by” value (normal fibroblasts; synthetic EPD 3 μg/mL) was 35%, the “growth of the cell line, % of the control value” (“growth … % of the control value” for short) ([3]; 1 μg/mL) was 40% and the “growth … % of the control value” ([3]; 1.5 μg/mL) was 13%. For the same compound, the “growth … % of the control value” ([3]; 2 μg/mL) was 8% and the “inhibition of JC cells compared with paclitaxel” value ([1]; JC as control cell line, FIG. 1C) was “at least as effective as paclitaxel”.

For `C=C1C(=O)O[C@@H]2CC3=CCC[C@H](C)[C@@]3(C)C[C@H]12` [EPD, eremophila-1(10)-11(13)-dien-12,8β-olide], the “cytotoxic effects towards ovarian cancer” value (ovarian cancer) is given as “potent cytotoxic effects” and the “cytotoxic effects towards normal cells” value (normal cells) is given as “not towards normal cells”.

For `CC(=O)O[C@H]1C(=O)[C@@]2(C)[C@H]([C@H](OC(=O)c3ccccc3)[C@]3(O)C[C@H](OC(=O)[C@H](O)[C@@H](NC(=O)c4ccccc4)c4ccccc4)C(C)=C1C3(C)C)[C@]1(OC(C)=O)CO[C@@H]1C[C@@H]2O` [paclitaxel, reference compound], the “resistance of cell line A2780AD to the drug” value ([3]; 0.375 μg/mL) was “full resistance”.
